target: T1, hT1R2/T1R3 taste receptor (Homo sapiens, UniProt Q7RTX0+Q8TE23); test: agonist activity against the hT1R2/T1R3 taste receptor (sweet receptor based assay); assay type: cell-based; details: not given
T1 sequence (Q8TE23 20-839): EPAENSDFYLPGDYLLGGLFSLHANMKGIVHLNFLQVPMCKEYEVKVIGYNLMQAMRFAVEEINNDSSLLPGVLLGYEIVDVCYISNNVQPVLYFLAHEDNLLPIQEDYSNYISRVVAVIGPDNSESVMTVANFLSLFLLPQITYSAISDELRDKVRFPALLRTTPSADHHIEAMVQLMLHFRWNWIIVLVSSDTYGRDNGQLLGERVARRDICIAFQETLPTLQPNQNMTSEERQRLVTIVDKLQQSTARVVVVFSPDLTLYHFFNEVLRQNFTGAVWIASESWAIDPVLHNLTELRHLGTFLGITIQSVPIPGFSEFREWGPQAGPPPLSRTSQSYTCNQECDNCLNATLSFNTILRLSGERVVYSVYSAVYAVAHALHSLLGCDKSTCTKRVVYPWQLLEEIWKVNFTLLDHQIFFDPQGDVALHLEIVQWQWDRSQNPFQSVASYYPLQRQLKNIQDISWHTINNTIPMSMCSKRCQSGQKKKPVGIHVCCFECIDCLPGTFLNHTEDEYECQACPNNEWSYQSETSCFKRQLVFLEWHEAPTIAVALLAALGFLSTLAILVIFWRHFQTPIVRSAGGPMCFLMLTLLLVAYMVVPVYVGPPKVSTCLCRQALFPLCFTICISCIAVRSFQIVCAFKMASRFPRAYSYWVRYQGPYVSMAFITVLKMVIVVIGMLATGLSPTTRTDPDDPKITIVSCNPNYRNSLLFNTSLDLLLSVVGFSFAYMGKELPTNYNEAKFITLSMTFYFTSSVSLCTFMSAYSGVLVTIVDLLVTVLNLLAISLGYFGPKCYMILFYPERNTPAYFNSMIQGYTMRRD
T1 sequence (Q7RTX0 21-852): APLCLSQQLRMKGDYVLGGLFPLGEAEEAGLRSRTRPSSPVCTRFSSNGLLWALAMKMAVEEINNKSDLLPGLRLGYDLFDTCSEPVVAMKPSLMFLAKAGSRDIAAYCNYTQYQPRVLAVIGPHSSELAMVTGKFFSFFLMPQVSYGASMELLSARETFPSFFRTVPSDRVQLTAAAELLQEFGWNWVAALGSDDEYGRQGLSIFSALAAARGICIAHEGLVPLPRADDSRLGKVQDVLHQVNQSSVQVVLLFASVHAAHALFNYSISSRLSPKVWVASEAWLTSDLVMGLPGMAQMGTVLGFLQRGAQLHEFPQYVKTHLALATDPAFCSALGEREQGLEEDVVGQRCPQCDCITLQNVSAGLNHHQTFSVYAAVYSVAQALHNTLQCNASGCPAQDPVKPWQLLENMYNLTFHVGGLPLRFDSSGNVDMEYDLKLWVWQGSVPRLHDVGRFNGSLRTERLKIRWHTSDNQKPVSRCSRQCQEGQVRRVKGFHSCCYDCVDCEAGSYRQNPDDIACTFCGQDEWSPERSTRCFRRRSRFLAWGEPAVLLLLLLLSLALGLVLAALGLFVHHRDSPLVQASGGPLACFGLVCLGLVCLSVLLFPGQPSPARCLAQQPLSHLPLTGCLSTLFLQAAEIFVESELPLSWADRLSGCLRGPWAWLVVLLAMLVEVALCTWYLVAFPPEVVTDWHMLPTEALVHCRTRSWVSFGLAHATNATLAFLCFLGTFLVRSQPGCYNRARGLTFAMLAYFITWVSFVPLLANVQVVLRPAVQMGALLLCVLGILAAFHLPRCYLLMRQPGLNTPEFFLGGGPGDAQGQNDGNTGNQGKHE
Protocol: Compounds described in this application show moderate to potent agonist effect on the sweet receptor based assay. Potencies (EC50 values, e.g. see Tables 1-3) for agonist activity were measured against the hT1R2/T1R3 taste receptor. FIG. 1 exemplifies the data generated during the screening to determine EC50 values.

Row | Compound | EC50
1 | CC(C)CNC(=O)C(C)(C)N1CCC(C#N)(c2ccccc2)CC1 [Compound 124] | 2.2 µM
2 | CC(C)CNC(=O)C(C)(C)N1CCC(C#N)(c2cccc(F)c2F)CC1 [Compound 79, 2-(4-cyano-4-(2,3-difluorophenyl)piperidin-1-yl)-N-isobutyl-2-methylpropanamide] | 1.6 µM
3 | COCCNC(=O)C(C)(C)N1CCC(C#N)(c2cccc(F)c2F)CC1 [Compound 125] | > 10 µM

same assay, conditions: agonist activity, hT1R2/T1R3; read-out: Sweet EC50

Row | Compound | EC50
4 | CC(C)CNC(=O)C(C)(C)N1CC=C(c2cccc(F)c2F)CC1 [Compound 59] | 1.7 µM
5 | Cc1cccnc1N1CCN(C(C)(C)C(=O)NCC(C)C)CC1 [Compound 41] | > 10 µM
6 | CC(C)CNC(=O)C(C)(C)N1CCC(c2ccccc2N(C)C)CC1 [Compound 101] | > 10 µM
7 | CC(C)CNC(=O)C(C)(C)N1CCC(c2ccccc2)CC1 [Compound 80, N-isobutyl-2-methyl-2-(4-phenylpiperidin-1-yl)propanamide] | 0.7 µM
8 | COCc1ccc(C2=CCN(C(C)(C)C(=O)NCC(C)C)CC2)c(F)c1 [Compound 69] | > 10 µM
9 | Cc1cccc(N2CCN(C(C)(C)C(=O)NCCN(C)C)CC2)c1C [Compound 23] | > 10 µM
10 | CC(C)(C(=O)NC1CC1)N1CCC(c2ccccc2)CC1 [Compound 82] | 10.4 µM
11 | COCc1cccc(C2=CCN(C(C)(C)C(=O)NCC(C)C)CC2)c1 [Compound 63] | > 10 µM
12 | Cc1cccc(N2CCN(CC(=O)NCC(C)C)CC2)c1C [Compound 12] | 9.7 µM
13 | CCC(CC)NC(=O)C(C)(C)N1CCN(c2cccc(C)c2C)CC1 [Compound 20] | 5.6 µM
14 | CC(C)(C)CNC(=O)C(C)(C)N1CCC(c2ccccc2)CC1 [Compound 88] | 4.2 µM
15 | COCc1c(F)cccc1C1=CCN(C(C)(C)C(=O)NCC(C)C)CC1 [Compound 61] | 6.5 µM
16 | CC(C)CNC(=O)C(C)(C)N1CCC(c2cccc3c2OCO3)CC1 [Compound 104] | 1.7 µM
17 | Cc1cccc(N2CCN(C(C)C(=O)NC3CC3)CC2)c1C (centres unmarked) [Compound 32] | > 10 µM
18 | COCC(C(=O)NCC(C)C)N1CCC(c2ccccc2)CC1 (centres unmarked) [Compound 113] | 4.4 µM
19 | COCc1cccc(N2CCN(C(C)(C)C(=O)NCC(C)C)CC2)c1 [Compound 45] | > 10 µM
20 | COc1cccc(C2CCN(C(C)(C)C(=O)NCC(C)C)CC2)c1F [Compound 100] | 1.4 µM
21 | CC(C)CNC(=O)C(C)(C)N1CC=C(c2cccc(F)c2)CC1 [Compound 62] | 3 µM
22 | Cc1ccccc1C1CCN(C(C)(C)C(=O)NCC(C)C)CC1 [Compound 92] | 1.6 µM
23 | CC(C)CNC(=O)C(C)(C)N1CCN(c2cccc(F)c2CO)CC1 [Compound 51, 2-(4-(3-fluoro-2-(hydroxymethyl)phenyl)piperazin-1-yl)-N-isobutyl-2-methylpropanamide] | > 10 µM

Row | Compound | EC50
24 | Cc1cccc(N2CCN(C(C)(C)C(=O)NCC(C)C)CC2)c1C [Compound 10] | 2.8 µM
25 | CCCNC(=O)C(C)(C)N1CCN(c2cccc(C)c2C)CC1 [Compound 9] | 4.2 µM
26 | COCC(C(=O)NCC(C)C)N1CCC(c2cccc(F)c2F)CC1 (centres unmarked) [Compound 114] | 0.4 µM
27 | CC(C)[C@@H](C)NC(=O)C(C)(C)N1CCC(c2ccccc2)CC1 [Compound 86] | 4.4 µM
28 | Cc1cccc(C2CCN(C(C)(C)C(=O)NCC(C)C)CC2)n1 [Compound 109] | 5.1 µM
29 | CCCNC(=O)C(C)(C)N1CCC(c2ccccc2)CC1 [Compound 85] | 5.5 µM
30 | COC(=O)c1c(F)cccc1N1CCN(C(C)(C)C(=O)NCC(C)C)CC1 [Compound 7, Methyl 2-fluoro-6-(4-(1-(isobutylamino)-2-methyl-1-oxopropan-2-yl)piperazin-1-yl)benzoate] | 11.5 µM
31 | CCC(C)(C)NC(=O)C(C)(C)N1CCN(c2cccc(C)c2C)CC1 [Compound 19] | > 10 µM
32 | COCc1ccccc1N1CCN(C(C)(C)C(=O)NCC(C)C)CC1 [Compound 47] | 6.8 µM
33 | CC(C)CNC(=O)C(C)(C)N1CCN(c2c(F)cccc2F)CC1 [Compound 42] | > 10 µM
34 | Cc1cccc(C)c1N1CCN(C(C)(C)C(=O)NCC(C)C)CC1 [Compound 40] | > 10 µM
35 | COCc1ccc(C2CCN(C(C)(C)C(=O)NCC(C)C)CC2)c(F)c1 [Compound 102] | > 10 µM
36 | CC(C)CNC(=O)C(C)(C)N1CCC(CO)(c2ccccc2)CC1 [Compound 119] | > 10 µM
37 | Cc1cccc(N2CCN(C(C)C(=O)NCC(C)C)CC2)c1C (centres unmarked) [Compound 11] | 1.4 µM
38 | CC(C)CNC(=O)C(C)(C)N1CCC(C)(c2ccccc2)CC1 [Compound 118] | 3.7 µM
39 | CC(C)CNC(=O)C(C)(C)N1CCC2(CC1)OCc1ccccc12 [Compound 121] | 5.6 µM
40 | Cc1ccccc1C1=CCN(C(C)(C)C(=O)NCC(C)C)CC1 [Compound 58] | 5.4 µM
41 | CC(C)CNC(=O)C(C)(C)N1CCN(c2ccccn2)CC1 [Compound 53] | > 10 µM
42 | Cc1ncccc1C1=CCN(C(C)(C)C(=O)NCC(C)C)CC1 [Compound 76] | > 10 µM
43 | CC(C)CNC(=O)C1(N2CCC(c3ccccc3)CC2)COC1 [Compound 112] | 4.8 µM

Row | Compound | EC50
44 | Cc1cccc(N2CCN(C(C)(C)C(=O)NCCC(C)C)CC2)c1C [Compound 26] | 8 µM
45 | CCNC(=O)C(C)(C)N1CCN(c2cccc(C)c2C)CC1 [Compound 8] | > 10 µM
46 | Cc1cccc(N2CCN(C(C)(C)C(=O)NCC(C)(C)O)CC2)c1C [Compound 25] | > 10 µM
47 | CC(C)CNC(=O)C(C)(C)N1CCC(O)(c2ccccc2)CC1 [Compound 123] | > 10 µM
48 | COCc1c(F)cccc1N1CCN(C(C)(C)C(=O)NCC(C)C)CC1 [Compound 5, 2-(4-(3-fluoro-2-(methoxymethyl)phenyl)piperazin-1-yl)-N-isobutyl-2-methylpropanamide] | 2.1 µM
49 | Cc1cccc(N2CCN(CC(=O)NC3CC3)CC2)c1C [Compound 31] | > 10 µM
50 | CC(C)CNC(=O)C(C)(C)N1CCN(c2ccccc2F)CC1 [Compound 2, 2-(4-(2-fluorophenyl)piperazin-1-yl)-N-isobutyl-2-methylpropanamide] | 6.8 µM
51 | Cc1cccc(N2CCN(C(C)(C)C(=O)NCCc3ccccc3)CC2)c1C [Compound 27] | > 10 µM
52 | CC(C)CNC(=O)C(C)(C)N1CCC(c2ccc(F)cc2)CC1 [Compound 97] | 6.2 µM
53 | Cc1cccc(C2CCN(C(C)(C)C(=O)NCC(C)C)CC2)c1F [Compound 98] | 0.9 µM
54 | CC(C)CNC(=O)C(C)(C)N1CCC(c2cccc(C(=O)N(C)C)c2)CC1 [Compound 106] | > 10 µM
55 | CC(C)CNC(=O)C(C)(C)N1CCN(c2ccccc2)CC1 [Compound 34] | > 10 µM
56 | Cc1cccc(N2CCN(C(C)(C)C(=O)NC3CC3)CC2)c1C [Compound 1, N-cyclopropyl-2-(4-(2,3-dimethylphenyl)piperazin-1-yl)-2-methylpropanamide] | 4.3 µM
57 | COc1ccccc1N1CCN(C(C)(C)C(=O)NCC(C)C)CC1 [Compound 52] | > 10 µM
58 | CC(C)CNC(=O)C(C)(C)N1CCc2ccccc2C1 [Compound 116] | 3.8 µM
59 | CC(C)CNC(=O)C(C)(C)N1CC=C(c2ccccc2)CC1 [Compound 56] | 3.3 µM
60 | COCc1ccccc1C1CCN(C(C)(C)C(=O)NCC(C)C)CC1 [Compound 110] | > 10 µM
61 | CC(C)CNC(=O)C(C)(C)N1CCC(c2ccccc2C(=O)N(C)C)CC1 [Compound 105] | > 10 µM
62 | CC(C)CNC(=O)C(C)(C)N1CCN(c2cccc(F)c2F)CC1 [Compound 3, 2-(4-(2,3-difluorophenyl)piperazin-1-yl)-N-isobutyl-2-methylpropanamide] | 1.6 µM

Reference: patent publication US20250280861A1, “SWEETENER COMPOSITIONS” (Firmenich Incorporated, priority 2022, published 2025)
